{"source": "patent US20240139376A1", "about": "“RECONSTITUTION OF EXTRACELLULAR MATRIXES FOR MUSCULOSKELETAL JOINT TISSUE REPAIR USING BIOMIMETIC BIOLOGIC AND SYNTHETIC FACTORS” (Rhode Island Hospital, priority 2021, published 2024)", "key": {"Human CPCs [1]": {"test_system": "Human CPCs", "assay": "Alcian Blue staining (GAG and HA), CPCs", "format": "cell-based", "details": "1 μM KGN, 10 days, p<0.05", "protocol": "(§1) CPCs and BM-MSCs were cultured again at 22,000 cell/swell for 10 days in 12-well plates and again treated with KGN. At 5 and 10 days of treatment, cell culture supernatant was collected, with cell media and KGN replenished at the 5-day timepoint (N=3). Supernatants were used to perform ELISA for measuring MMP13 protein. At day 10, cell culture plates were stained for Alcian Blue (N=4). The color was extracted and the absorbances were quantified via spectrophotometry, to assess acidic glycosaminoglycans (GAG) and hyaluronan (HA). In analysis, within and between group differences were assessed through 2-way ANOVA with Dunnett's multiple comparisons test. Significant differences are signified by p-values ≤0.05.\n(§2) Human CPCs and BM-MSCs were cultured at 40,000 cells/well for 3 days or 22,000 cells/well for 10 days on 12-well plates. Cells were either untreated or treated with 500 nM, 1 uM, 10 uM, or 100 uM KGN (Sigma-Aldrich) at N=5 for each treatment group. […] The color was extracted and the absorbances were quantified via spectrophotometry, to assess acidic glycosaminoglycans (GAG) and hyaluronan (HA). In analysis, within and between group differences were assessed through 2-way ANOVA with Dunnett's multiple comparisons test. […]"}, "BM-MSCs [2]": {"test_system": "BM-MSCs", "assay": "ELISA for MMP13 protein in cell culture supernatant, BM-MSCs", "format": "cell-based, Human", "protocol": "as §1\nas §1, with “Human CPCs and BM-MSCs were cultured at 40,000 cells/well for 3 days or 22,000 cells/well for 10 days on 12-well plates. Cells were either untreated or treated with 500 nM, 1 uM, 10 uM, or 100 uM KGN (Sigma-Aldrich) at N=5 for each treatment group. At experimental endpoint following KGN treatment, RT-qPCR was used the measure expression of chondrogenic markers SOX9, COL2, COL1 as well as hypertrophy and catabolism markers COL10, MMP13, RUNX2. CPCs” for “CPCs”, “p-values≤0.05.” for “p-values ≤0.05.”"}, "BM-MSCs [3]": {"test_system": "BM-MSCs", "assay": "Alcian Blue staining (GAG and HA), BM-MSCs", "format": "cell-based, Human", "details": "10 days", "protocol": "as §1, §2"}, "[4]": {"test_system": "bone marrow derived mesenchymal stem cells (BM-MSCs)", "assay": "RT-qPCR of chondrogenic and hypertrophy markers after KGN treatment, BM-MSCs", "format": "cell-based, Human", "protocol": "(§3) 1 μM KGN enhances chondrogenesis of CPCs but not MSCs. The following materials and methods were used to generate the data described herein. Human CPCs and bone marrow derived mesenchymal stem cells (BM-MSCs) were cultured at 40,000 cells/well for 3 days or 22,000 cells/well for 10 days on 12-well plates. Cells were either untreated or treated with 500 nM, 1 μM, 10 μM, or 100 μM KGN (Sigma-Aldrich) at N=5 for each treatment group. At experimental endpoint following KGN treatment, RT-qPCR was used the measure expression of chondrogenic markers SRY-Box Transcription Factor 9 (SOX9), collagen 2 (COL2), collagen 1 (COL1) (FIG. 3A) as well as hypertrophy and catabolism markers, associated with development of osteoarthritis, collagen 10 (COL10), matrix metallopeptidase 13 (MMP13), Runt-related transcription factor 2 (RUNX2) (FIG. 3B).\nas §1, with “Human CPCs and BM-MSCs were cultured at 40,000 cells/well for 3 days or 22,000 cells/well for 10 days on 12-well plates. Cells were either untreated or treated with 500 nM, 1 uM, 10 uM, or 100 uM KGN (Sigma-Aldrich) at N=5 for each treatment group. At experimental endpoint following KGN treatment, RT-qPCR was used the measure expression of chondrogenic markers SOX9, COL2, COL1 as well as hypertrophy and catabolism markers COL10, MMP13, RUNX2. CPCs” for “CPCs”, “p-values≤0.05.” for “p-values ≤0.05.”"}, "Human CPCs [5]": {"test_system": "Human CPCs", "assay": "RT-qPCR of chondrogenic and hypertrophy markers after KGN treatment, CPCs", "format": "cell-based", "protocol": "as §3\nas §1, with “Human CPCs and BM-MSCs were cultured at 40,000 cells/well for 3 days or 22,000 cells/well for 10 days on 12-well plates. Cells were either untreated or treated with 500 nM, 1 uM, 10 uM, or 100 uM KGN (Sigma-Aldrich) at N=5 for each treatment group. At experimental endpoint following KGN treatment, RT-qPCR was used the measure expression of chondrogenic markers SOX9, COL2, COL1 as well as hypertrophy and catabolism markers COL10, MMP13, RUNX2. CPCs” for “CPCs”, “p-values≤0.05.” for “p-values ≤0.05.”"}, "Human CPCs [6]": {"test_system": "Human CPCs", "assay": "ELISA for MMP13 protein in cell culture supernatant, CPCs", "format": "cell-based", "details": "all treatment groups", "protocol": "as §1, §2"}}, "data": [{"smiles": "O=C(O)c1ccccc1C(=O)Nc1ccc(-c2ccccc2)cc1", "note": "[KGN, kartogenin]", "values": [{"measurement": "Alcian Blue staining intensity vs untreated", "setting": "Human CPCs [1]", "result": "increased intensity"}, {"measurement": "protein levels of MMP13", "setting": "BM-MSCs [2]; 10 μM KGN, 0-5 days, p<0.001", "result": "significant decrease"}, {"measurement": "protein levels of MMP13", "setting": "BM-MSCs [2]; 10 μM KGN, 5-10 days, p<0.05", "result": "significant decrease"}, {"measurement": "protein levels of MMP13", "setting": "BM-MSCs [2]; 100 μM KGN, 0-5 days, p<0.0001", "result": "significant decrease"}, {"measurement": "protein levels of MMP13", "setting": "BM-MSCs [2]; 100 μM KGN, 5-10 days, p<0.0001", "result": "significant decrease"}, {"measurement": "Alcian Blue staining intensity vs untreated", "setting": "BM-MSCs [3]; 10 μM KGN, p<0.05", "result": "stained more intensely"}, {"measurement": "Alcian Blue staining intensity vs untreated", "setting": "BM-MSCs [3]; 100 μM KGN, p<0.0001", "result": "stained more intensely"}, {"measurement": "expression of COL10", "setting": "[4]; 100 μM KGN, 10 days, p<0.05", "result": "significantly reduced"}, {"measurement": "expression of MMP13", "setting": "[4]; 100 μM KGN, 10 days, p<0.05", "result": "significantly reduced"}, {"measurement": "expression of COL1", "setting": "[4]; KGN", "result": "did not increase"}, {"measurement": "expression of COL2", "setting": "[4]; KGN", "result": "did not increase"}, {"measurement": "expression of SOX9", "setting": "[4]; KGN", "result": "did not increase"}, {"measurement": "expression of MMP13", "setting": "Human CPCs [5]; 1 μM KGN, 3 days", "result": "increased"}, {"measurement": "expression of RUNX2", "setting": "Human CPCs [5]; 1 μM KGN, 3 days", "result": "increased"}, {"measurement": "expression of RUNX2", "setting": "Human CPCs [5]; 10 μM KGN, 3 days", "result": "increased"}, {"measurement": "expression of RUNX2", "setting": "Human CPCs [5]; 100 μM KGN, 3 days", "result": "increased"}, {"measurement": "upregulation of COL2 mRNA", "setting": "Human CPCs [5]; CPCs, 1 μM KGN, 3 days, p<0.0001", "result": 2, "unit": "fold"}, {"measurement": "upregulation of SOX9 mRNA", "setting": "Human CPCs [5]; CPCs, 1 μM KGN, 3 days, p<0.05", "result": 2, "unit": "fold"}, {"measurement": "upregulation of COL2 mRNA", "setting": "Human CPCs [5]; CPCs, 1 μM KGN, 10 days, p<0.05", "result": "maintained"}, {"measurement": "MMP13 protein in supernatant", "setting": "Human CPCs [6]; 0-5 days KGN treatment", "result": "undetectable"}, {"measurement": "MMP13 protein in supernatant", "setting": "Human CPCs [6]; 6-10 days KGN treatment", "result": "undetectable"}]}]}
